Data taken from PubChem BioAssay AID1985 (Southern Research Specialized Biocontainment Screening …, 2009).

Each compound was assayed on S. Typhi PhoP-promoter GFP reporter, fluorescence, 4 h (assay: modified counter assay using GFP fluorescence, PhoP regulon inhibitor project, dose response (AID 1985)).

Point of comparison: `O=C(Nc1nnc(-c2ccco2)o1)c1cccc(Cl)c1`, IC50 40 µM. Against it:
- COc1ccc(C(=O)N/N=C/c2sc3ccccc3c2O)cc1 — within 1.5-fold, 44.2 µM
- CNC[C@@H](Cc1ccccc1)NC[C@@H](CC1CCCCC1)NCCCc1ccccc1 — within 1.5-fold, 41.8 µM
- CCOc1ccc(/C=N/NC(=O)c2[nH]ncc2Br)c(O)c1 — 1.6-fold higher, 65.4 µM
- COC(=O)C1=C(C)N(Cc2ccccc2)C(=NCc2cccc(C(F)(F)F)c2)N[C@H]1c1cccc(F)c1 — 2.2-fold higher, 86.1 µM
- COCCCNC(=S)NNC(=O)c1ccccn1 — 1.6-fold lower, 25.7 µM
- CS(=O)(=O)c1ccc2nc(NC(=O)c3ccc(Cl)nc3)sc2c1 — 2-fold higher, 81.9 µM
- C#CCOCCOCCOCCNc1nc(N2CCN(C(=O)CCCCCCCCCCNC(=O)[C@H]([C@@H](C)CC)n3cc(CCCCN=C(N)N)nn3)CC2)nc(N2CCN(C(=O)CCCCCCCCCCNC(=O)[C@H](CO)n3cc(CCCCCN)nn3)CC2)n1 — within 1.5-fold, 32.8 µM
- Cc1[nH]cnc1C(=O)N/N=C/c1ccc([N+](=O)[O-])s1 — 1.9-fold lower, 20.6 µM
- O=C(CCN1CCN(c2ccccc2F)CC1)c1ccc(Br)cc1 — within 1.5-fold, 43.4 µM
- CC1(C)CC(=O)c2c(nc3ccccc3c2N)C1 — 3.6-fold higher, 143 µM
- Oc1cccc2ccc(Nc3ccccn3)nc12 — 3.4-fold lower, 11.6 µM
- COc1ccccc1N1CCN(Cc2ccc(O)c3ncccc23)CC1 — 1.8-fold higher, 72 µM
- CCCCCCCCC[n+]1cccc2c3ccccc3ccc21 — within 1.5-fold, 26.8 µM
- O=C1Nc2ccccc2C1=Nc1ccc(S(=O)(=O)Nc2nccs2)cc1 — 2.3-fold higher, 90.1 µM
- C#CCOCCOCCOCCNc1nc(N2CCN(C(=O)CCCCCCCCCCNC(=O)Cn3cc(CCCCCN)nn3)CC2)nc(N2CCN(C(=O)CCCCCCCCCCNC(=O)[C@H]([C@@H](C)CC)n3cc(CCCCCN)nn3)CC2)n1 — 1.8-fold higher, 71.3 µM
- O=c1c2ccccc2nc(N/N=C/c2c(O)ccc3ccccc23)n1O — 1.7-fold lower, 23 µM
- CC1CCC(C(C)C)C(OC(=O)Cn2c(-c3ccc(Cl)cc3)[n+](C)c3ccccc32)C1 (stereo unspecified) — 3.6-fold higher, 144 µM
- CN1CCN(C2Cc3ccc(Cl)cc3Sc3ccc(F)cc32)CC1 (stereo unspecified) — within 1.5-fold, 39.6 µM
- O=C(Nc1ccccc1)c1ccc2nsnc2c1 — lower, < 0.23 µM
- O=C(CSc1nc2ccccc2[nH]1)Nc1ccc(F)c(F)c1 — within 1.5-fold, 46.9 µM
- O=C1c2ccccc2NC(c2ccc(-c3ccc(Br)cc3)o2)N1O (stereo unspecified) — 2-fold higher, 81.1 µM
- Cn1c(-c2ccc3c(c2)OCO3)cnc1NCc1ccc(Cl)cc1 — 3.5-fold higher, 140 µM
- CCCCCCCCCCCCCCCC[n+]1ccc(/C=N/O)cc1 — within 1.5-fold, 34.2 µM
- Cc1ccc(N/C(=C\C(=O)c2ccccc2)C(=O)O)cc1 — 2.3-fold lower, 17.3 µM
- COc1cccc(Nc2nc(NCC3CCCO3)c3ccccc3n2)c1 (stereo unspecified) — within 1.5-fold, 34.2 µM
- COc1ccc(/C=N/Nc2cc(C)nc3ccc(Br)cc23)cc1 — within 1.5-fold, 46.2 µM
- N#Cc1nc(Cc2cccc3ccccc23)oc1NCCCN1CCOCC1 — 1.6-fold higher, 62 µM
- COc1cc(/C=N/NC(=O)c2cncc(Br)c2)cc([N+](=O)[O-])c1O — lower, < 0.23 µM
- Cn1ncnc2c(=O)n(C)c(=O)nc1-2 — 54-fold lower, 0.741 µM
- COc1ccc(/C=N/Nc2cc(C)nc3c(C)cccc23)cc1 — within 1.5-fold, 37.2 µM
- CC[C@H]1OC(=O)C[C@@H](O)[C@H](C)[C@@H](O[C@@H]2O[C@H](C)C[C@H](N(C)C)[C@H]2O)[C@@H](CC=O)C[C@@H](C)C(=O)C=C[C@]2(C)O[C@H]2[C@@H]1C — 4.3-fold lower, 9.29 µM
- CCOC(=O)c1c(N)sc(C(=O)Nc2ccc3c(c2)OCO3)c1C — 3.4-fold higher, 137 µM
- C#CCOCCOCCOCCNc1nc(N2CCN(C(=O)CCCCCCCCCCNC(=O)[C@H](CCCCN)n3cc(CCO)nn3)CC2)nc(N2CCN(C(=O)CCCCCCCCCCNC(=O)[C@H](CCCCN)n3cc(C[C@@H](C)CC)nn3)CC2)n1 — within 1.5-fold, 38 µM
- Cc1cc(NS(=O)(=O)c2ccc(NC(=O)Nc3cccc(Cl)c3)cc2)no1 — 3.4-fold higher, 137 µM
- CCOc1cccc(/C=N/NC(=O)c2cc(C3CC3)[nH]n2)c1O — 3.4-fold higher, 136 µM
- O=c1[nH]c(=S)ccn1C1OC(CO)C(O)C1O (stereo unspecified) — 23-fold lower, 1.74 µM
- O=C(/C=C/c1ccccc1)c1ccc(NC2=NCCCS2)cc1 — 2.9-fold higher, 117 µM
- CCOC(=O)c1c(-c2ccc(-c3ccccc3)cc2)csc1NC(=O)CNCCN(C)C — 2.1-fold higher, 82.2 µM
- Fc1ccc(Nc2c3c(nc4ccccc24)CCC3)cc1 — 2.1-fold higher, 85 µM
- CCCCCCCNC(=O)C1(CC2CC(c3cccc(Br)c3)=NO2)CCNCC1 (stereo unspecified) — within 1.5-fold, 46 µM
- COc1cc(C(=O)N/N=C/c2ccc(OC(=O)c3cccc(C)c3)c(OC)c2)ccc1O — 1.9-fold lower, 20.9 µM
- CCCCNC1=CC(=O)C(=O)c2ccccc21 — 2.6-fold higher, 104 µM
- O=C(Nc1cccnc1)c1cc(Br)c(Br)s1 — 3.4-fold higher, 134 µM
- C=CCNc1ncnc2c1[nH]c1ccc(C)cc12 — within 1.5-fold, 56.3 µM
- CCCCCOc1ccc(CSC2=NCCN2)cc1[N+](=O)[O-] — 2.4-fold higher, 95.1 µM
- Cc1ccc(NC(=O)c2ccccc2)s1 — 2.3-fold higher, 91.9 µM
- O=C(c1cccs1)c1no[n+]([O-])c1C(=O)c1cccs1 — 2.9-fold lower, 14 µM
- O=c1ccc2cc3c([nH]c4ccc(Br)cc43)oc-2c1O — 1.8-fold lower, 22.5 µM
- O=C(O)/C(=C\C(=O)c1ccccc1)Nc1ccccc1 — 2-fold lower, 20.5 µM
- CN1CCN(c2nc3cc(C(F)(F)F)ccc3n3cccc23)CC1 — 2.5-fold higher, 101 µM
- CC(=O)NC(c1ccc2ccccc2c1)c1ccc2cccnc2c1O (stereo unspecified) — 1.7-fold higher, 68.4 µM
- CCOc1cc(C(c2c(C)[nH][nH]c2=O)c2c(C)[nH][nH]c2=O)cc([N+](=O)[O-])c1O — 1.9-fold higher, 75.6 µM
- O=C(CCN1CCN(C(=O)c2ccccc2)CC1)c1ccc(Br)cc1 — 3.6-fold higher, 144 µM
- CCCCn1c(=N)n(CC(=O)c2ccc(Br)s2)c2ccccc21 — 2-fold higher, 78.7 µM
- Cc1cccc(Nc2cc(C)c3c(O)cccc3n2)c1C — within 1.5-fold, 49.6 µM
